Assays:
[1] = tested on: Escherichia coli; assay: Minimum inhibitory concentration required for antibacterial activity against Escherichia coli 1077; assay type: functional
[2] = tested on: Escherichia coli; assay: Minimum inhibitory concentration required for antibacterial activity against Escherichia coli ESS; assay type: functional
[3] = tested on: Klebsiella pneumoniae; assay: Minimum inhibitory concentration required for antibacterial activity against Klebsiella pneumoniae T767; assay type: functional
[4] = tested on: Pseudomonas aeruginosa; assay: Minimum inhibitory concentration required for antibacterial activity against Pseudomonas aeruginosa 10662; assay type: functional
[5] = tested on: Escherichia coli; assay: Minimum inhibitory concentration required for antibacterial activity against Escherichia coli 10418; assay type: functional
[6] = tested on: Escherichia coli; assay: Minimum inhibitory concentration required for antibacterial activity against Escherichia coli JT425; assay type: functional
[7] = tested on: Moraxella catarrhalis; assay: Minimum inhibitory concentration required for antibacterial activity against Moraxella catarrhalis Ravasio; assay type: functional
[8] = tested on: Streptococcus pneumoniae; assay: Minimum inhibitory concentration required for antibacterial activity against Streptococcus pneumoniae 1761; assay type: functional
[9] = tested on: Staphylococcus aureus; assay: Minimum inhibitory concentration required for antibacterial activity against Staphylococcus aureus Oxford; assay type: functional
[10] = tested on: Streptococcus agalactiae; assay: Minimum inhibitory concentration required for antibacterial activity against Streptococcus agalactiae 2798; assay type: functional
[11] = tested on: Streptococcus pyogenes; assay: Minimum inhibitory concentration required for antibacterial activity against Streptococcus pyogenes CN 10; assay type: functional
[12] = tested on: Proteus mirabilis; assay: Minimum inhibitory concentration required for antibacterial activity against Pr. mirabilis C977; assay type: functional
[13] = tested on: Haemophilus influenzae; assay: Minimum inhibitory concentration required for antibacterial activity against Haemophilus influenzae NEMC1; assay type: functional
[14] = tested on: Streptococcus pneumoniae; assay: Minimum inhibitory concentration required for antibacterial activity against Streptococcus pneumoniae PU 7; assay type: functional
[15] = tested on: Morganella morganii; assay: Minimum inhibitory concentration required for antibacterial activity against Morg. morganii T361; assay type: functional
[16] = tested on: Haemophilus influenzae; assay: Minimum inhibitory concentration required for antibacterial activity against Haemophilus influenzae Q1; assay type: functional
[17] = tested on: Staphylococcus aureus; assay: Minimum inhibitory concentration required for antibacterial activity against Staphylococcus aureus Russell; assay type: functional
[18] = tested on: Enterococcus faecalis; assay: Minimum inhibitory concentration required for antibacterial activity against Ent. faecalis I; assay type: functional
[19] = tested on: Staphylococcus aureus; assay: Minimum inhibitory concentration required for antibacterial activity against Staphylococcus aureus MB9; assay type: functional
[20] = tested on: Staphylococcus epidermidis; assay: Minimum inhibitory concentration required for antibacterial activity against Staphylococcus epidermidis PHLN 20; assay type: functional
[21] = tested on: Staphylococcus aureus; assay: Minimum inhibitory concentration required for antibacterial activity against Staphylococcus aureus Oxford
[22] = tested on: Staphylococcus aureus; assay: Minimum inhibitory concentration required for antibacterial activity against Staphylococcus aureus Russell

Row | MIC [1] [µg/mL] | MIC [2] [µg/mL] | MIC [3] [µg/mL] | MIC [4] [µg/mL] | MIC [5] [µg/mL] | MIC [6] [µg/mL] | MIC [7] [µg/mL] | MIC [8] [µg/mL] | MIC [9] [µg/mL] | MIC [10] [µg/mL] | MIC [11] [µg/mL] | MIC [12] [µg/mL] | MIC [13] [µg/mL] | MIC [14] [µg/mL] | MIC [15] [µg/mL] | MIC [16] [µg/mL] | MIC [17] [µg/mL] | MIC [18] [µg/mL] | MIC [19] [µg/mL] | MIC [20] [µg/mL] | SMILES | further results
1 | 0.12 | < 0.03 | 0.06 | 64 | < 0.03 | 1 | 2 | < 0.03 | 1 | 0.06 | < 0.03 | < 0.03 | < 0.03 | 2 | 0.06 | 0.06 | 1 | > 64 | 2 | 0.5 | CO/N=C(\C(=O)N[C@@H]1C(=O)N2C(C(=O)[O-])=C(C3CCC(=O)O3)CS[C@H]12)c1csc(N)n1.[Na+] (stereo not given in full) | –
2 | 0.5 | < 0.03 | 0.5 | > 64 | 0.06 | 4 | 0.5 | < 0.03 | 1 | 0.06 | < 0.03 | 0.25 | < 0.03 | 4 | 0.5 | 0.06 | 1 | > 64 | 4 | 4 | CO/N=C(\C(=O)N[C@@H]1C(=O)N2C(C(=O)[O-])=C(CC3C=CC(=O)O3)CS[C@H]12)c1csc(N)n1.[Na+] (stereo not given in full) | –
3 | 1 | < 0.03 | 1 | 32 | < 0.03 | 2 | 8 | < 0.03 | – | < 0.03 | < 0.03 | 0.06 | < 0.03 | 0.5 | < 0.06 | < 0.03 | – | 16 | 4 | 2 | CO/N=C(\C(=O)N[C@@H]1C(=O)N2C(C(=O)[O-])=C(/C=C3\C=C(C)C(=O)O3)CS[C@H]12)c1csc(N)n1.[Na+] | MIC [21]: 1 µg/mL; MIC [22]: 2 µg/mL

Row | SMILES | MIC [1] [µg/mL] | MIC [2] [µg/mL] | MIC [3] [µg/mL] | MIC [4] [µg/mL] | MIC [5] [µg/mL] | MIC [6] [µg/mL] | MIC [7] [µg/mL] | MIC [8] [µg/mL] | MIC [9] [µg/mL] | MIC [10] [µg/mL] | MIC [11] [µg/mL] | MIC [12] [µg/mL] | MIC [13] [µg/mL] | MIC [14] [µg/mL] | MIC [15] [µg/mL] | MIC [16] [µg/mL] | MIC [17] [µg/mL] | MIC [18] [µg/mL] | MIC [19] [µg/mL] | MIC [20] [µg/mL] | further results
4 | CO/N=C(\C(=O)N[C@@H]1C(=O)N2C(C(=O)[O-])=C(COC(C)=O)CS[C@H]12)c1csc(N)n1.[Na+] [CEFOTAXIME SODIUM] | < 0.03 | < 0.03 | 0.06 | 16 | < 0.03 | 0.5 | 0.25 | < 0.03 | 2 | 0.12 | < 0.03 | < 0.03 | < 0.03 | 2 | 2 | < 0.03 | 2 | > 64 | 4 | 1 | –
